# Source: US9738595B2, “Carboxamide compounds” (SYNGENTA PARTICIPATIONS AG, priority 2013, dated 2017)
row,Structure (SMILES),melting point
1,"CC(C)(NC(=O)c1c(F)cccc1F)C(=O)c1ccc([C@H]2C[C@@H]2C(F)(F)F)cc1 (racemic) [Compound 19.003, N-[1,1-dimethyl-2-oxo-2-[4-[trans-2-(trifluoromethyl)-1-cyclopropyl]phenyl]ethyl]-2,6-difluoro-benzamide]",65 to 82 °C
2,"CC(C)(NC(=O)c1c(F)cccc1F)C(=O)c1ccc([C@H]2C[C@@H]2C(=O)O)cc1 (racemic) [Compound 19.061, trans-2-[4-[2-[(2,6-Difluorobenzoyl)amino]-2-methyl-propanoyl]phenyl]cyclopropane carboxylic acid]",115 to 116 °C
3,"CC(C)(C)OC(=O)N[C@H]1C[C@@H]1c1ccc(C(=O)C(C)(C)NC(=O)c2c(F)cccc2F)cc1 (racemic) [Compound 19.062, trans-tert-Butyl N-[2-[4-[2-[(2,6-difluorobenzoyl)amino]-2-methyl-propanoyl]phenyl]cyclopropyl]carbamate]",197 to 198 °C
4,"CC(C)(NC(=O)c1c(F)cccc1F)C(=O)c1ccc(C2CC2)cc1 [Compound 19.001, N-[2-(4-cyclopropylphenyl)-1,1-dimethyl-2-oxo-ethyl]-2,6-difluoro-benzamide]",121 to 123 °C
